This assay concerns the target L858R/T790M EGFR (Homo sapiens, UniProt P00533, L858R/T790M). Conditions: Ba/F3 cells harboring L858R/T790M EGFR treated with inhibitor; lysates immunoprecipitated by biotinylated Compound A; FIG. 2A.

Experimental findings from US20210077469A1, “PHARMACEUTICAL COMBINATIONS OF EGFR INHIBITORS AND METHODS OF USE THEREOF” (DANA-FARBER CANCER INSTITUTE, INC., priority 2018, published 2021) are described below.

Sequence of L858R/T790M EGFR (P00533 25-1210 T790M/L858R): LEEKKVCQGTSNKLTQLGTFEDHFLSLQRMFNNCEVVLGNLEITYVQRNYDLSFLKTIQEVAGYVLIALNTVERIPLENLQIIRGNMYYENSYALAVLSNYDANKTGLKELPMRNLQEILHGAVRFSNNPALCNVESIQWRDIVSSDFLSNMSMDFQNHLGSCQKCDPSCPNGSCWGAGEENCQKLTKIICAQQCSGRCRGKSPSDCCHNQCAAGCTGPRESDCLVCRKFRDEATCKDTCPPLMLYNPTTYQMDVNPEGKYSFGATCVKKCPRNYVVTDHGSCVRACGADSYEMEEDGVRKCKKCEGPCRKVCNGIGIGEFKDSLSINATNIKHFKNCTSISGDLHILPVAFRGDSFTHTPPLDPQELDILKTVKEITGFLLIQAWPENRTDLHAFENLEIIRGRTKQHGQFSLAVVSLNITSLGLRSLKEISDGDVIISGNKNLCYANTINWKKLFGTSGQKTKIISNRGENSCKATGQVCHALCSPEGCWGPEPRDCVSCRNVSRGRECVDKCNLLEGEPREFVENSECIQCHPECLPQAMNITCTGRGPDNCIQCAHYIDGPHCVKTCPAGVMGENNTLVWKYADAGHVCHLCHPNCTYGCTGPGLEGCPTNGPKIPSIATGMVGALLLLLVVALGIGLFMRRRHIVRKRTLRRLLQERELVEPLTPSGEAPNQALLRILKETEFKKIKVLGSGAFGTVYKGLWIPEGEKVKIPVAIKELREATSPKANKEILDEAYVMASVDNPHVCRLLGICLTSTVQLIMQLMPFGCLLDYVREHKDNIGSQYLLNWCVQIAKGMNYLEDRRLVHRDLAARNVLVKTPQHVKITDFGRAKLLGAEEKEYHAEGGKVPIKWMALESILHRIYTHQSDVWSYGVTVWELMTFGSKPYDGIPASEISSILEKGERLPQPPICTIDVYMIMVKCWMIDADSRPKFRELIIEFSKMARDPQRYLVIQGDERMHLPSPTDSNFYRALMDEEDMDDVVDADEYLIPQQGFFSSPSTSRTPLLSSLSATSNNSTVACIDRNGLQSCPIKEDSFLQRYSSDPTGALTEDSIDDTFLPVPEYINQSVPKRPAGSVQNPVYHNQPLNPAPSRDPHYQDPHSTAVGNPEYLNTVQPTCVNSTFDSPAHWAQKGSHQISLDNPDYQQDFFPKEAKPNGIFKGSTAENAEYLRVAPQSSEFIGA
Protocol: 15-20 μg of proteins lysates were aliquoted and loaded at the same time as the pull down assay to ensure the presence of EGFR protein, phospho-EGFR activity. Tubulin expression was assessed to ensure even loading of gels. 500 μg of protein was incubated with either biotinylated-linker (control) or with biotinylated Compound A for two hours before 50% NeutrAvidin agarose beads (Thermo Fisher Scientific) slurry was added for an hour to precipitate the EGFR that was associated to the biotinylated allosteric inhibitor. The beads were then washed three times with PBS containing 1% IGEPAL and an insulin syringe was used to remove extraneous buffer before the samples were suspended in 2×SDS sample preparation buffer for Western blotting analyses. All experiments were performed at least three times.

Regarding `C=CC(=O)Nc1cccc(Oc2nc(Nc3ccc(N4CCN(C)CC4)cc3OC)ncc2Cl)c1` [WZ-4002], the “interference with binding of Compound A to EGFR” value is recorded as “interfere”.
